# Tests used:
# Histamine H3 receptor [1] = target: T1, Histamine H3 receptor (Homo sapiens, UniProt Q9Y5N1); experiment: Antagonist activity at human histamine H3 receptor; type: functional; settings: read-out: pA2 (converted)
# Histamine H3 receptor [2] = target: T1, Histamine H3 receptor; experiment: Binding affinity to human histamine H3 receptor
# Cytochrome P450 2D6 = Cytochrome P450 2D6 (Homo sapiens, UniProt P10635); experiment: Inhibition of CYP2D6; type: ADME
# [3] = Half life in rat at 10 mg/kg, po; type: ADME, organism-based; parameters: dose 10 mg/kg, route oral; settings: in vivo
# Histamine H3 receptor [4] = target: Histamine H3 receptor (Rattus norvegicus, UniProt Q9QYN8); experiment: Antagonist activity at rat histamine H3 receptor; type: functional; settings: read-out: pA2 (converted)
# Sequence of Histamine H3 receptor (Rattus norvegicus, UniProt Q9QYN8) (Q9QYN8 whole entry): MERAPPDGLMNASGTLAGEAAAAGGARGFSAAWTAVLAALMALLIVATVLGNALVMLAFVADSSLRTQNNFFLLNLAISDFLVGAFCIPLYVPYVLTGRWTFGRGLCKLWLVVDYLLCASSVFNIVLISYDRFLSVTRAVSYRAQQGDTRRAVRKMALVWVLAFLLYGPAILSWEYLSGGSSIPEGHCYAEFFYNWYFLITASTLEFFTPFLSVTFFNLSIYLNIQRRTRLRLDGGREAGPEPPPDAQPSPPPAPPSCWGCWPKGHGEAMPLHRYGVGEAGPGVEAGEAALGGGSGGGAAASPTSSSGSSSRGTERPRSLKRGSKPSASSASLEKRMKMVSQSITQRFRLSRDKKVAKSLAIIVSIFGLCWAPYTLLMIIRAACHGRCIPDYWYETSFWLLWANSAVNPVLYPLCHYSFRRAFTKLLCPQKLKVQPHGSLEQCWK
# Cytochrome P450 3A4 = Cytochrome P450 3A4 (Homo sapiens, UniProt P08684); experiment: Inhibition of CYP3A4; type: ADME
# Sequence of Cytochrome P450 3A4 (P08684 whole entry): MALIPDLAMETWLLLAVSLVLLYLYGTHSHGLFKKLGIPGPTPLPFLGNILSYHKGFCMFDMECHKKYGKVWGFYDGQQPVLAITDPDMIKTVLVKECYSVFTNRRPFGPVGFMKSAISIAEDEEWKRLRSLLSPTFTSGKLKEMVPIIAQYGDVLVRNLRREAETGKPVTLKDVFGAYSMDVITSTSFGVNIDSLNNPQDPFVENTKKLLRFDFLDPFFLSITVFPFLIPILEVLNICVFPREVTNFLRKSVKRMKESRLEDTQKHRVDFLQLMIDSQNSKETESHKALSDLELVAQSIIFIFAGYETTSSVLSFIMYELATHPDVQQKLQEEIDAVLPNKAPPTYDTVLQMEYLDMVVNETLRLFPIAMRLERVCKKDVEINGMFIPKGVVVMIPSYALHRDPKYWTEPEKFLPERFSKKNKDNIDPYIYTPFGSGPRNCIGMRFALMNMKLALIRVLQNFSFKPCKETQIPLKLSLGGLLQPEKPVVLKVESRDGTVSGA
# [5] = Oral bioavailability in rat at 10 mg/kg; type: ADME, organism-based; settings: in vivo
# [6] = Drug level in rat at 10 mg/kg, ip after 48 hrs; type: ADME, organism-based; parameters: dose 10 mg/kg, route intraperitoneal; settings: in vivo, read-out: Drug uptake
# [7] = Binding affinity to sigma receptor at 10 uM
# Cytochrome P450 1A2 = target: T2, Cytochrome P450 1A2 (Homo sapiens, UniProt P05177); experiment: Inhibition of CYP1A2; type: ADME
# T2 sequence (P05177 whole entry): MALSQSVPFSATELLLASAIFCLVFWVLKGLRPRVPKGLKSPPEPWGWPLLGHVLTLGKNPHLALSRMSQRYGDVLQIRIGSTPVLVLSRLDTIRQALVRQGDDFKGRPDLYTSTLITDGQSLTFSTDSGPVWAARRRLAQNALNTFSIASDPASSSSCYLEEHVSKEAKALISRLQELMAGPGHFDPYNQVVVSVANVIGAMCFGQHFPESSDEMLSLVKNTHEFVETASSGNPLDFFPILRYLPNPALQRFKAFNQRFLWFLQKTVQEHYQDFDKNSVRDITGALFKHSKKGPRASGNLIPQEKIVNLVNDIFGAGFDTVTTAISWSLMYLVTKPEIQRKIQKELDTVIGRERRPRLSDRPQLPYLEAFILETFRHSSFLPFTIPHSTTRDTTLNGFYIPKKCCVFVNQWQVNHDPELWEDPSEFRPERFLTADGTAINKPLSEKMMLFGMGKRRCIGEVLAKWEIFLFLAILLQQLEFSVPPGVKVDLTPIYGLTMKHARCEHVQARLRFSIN
# Cytochrome P450 2C19 = Cytochrome P450 2C19 (Homo sapiens, UniProt P33261); experiment: Inhibition of CYP2C19; type: ADME
# Sequence of Cytochrome P450 2C19 (P33261 whole entry): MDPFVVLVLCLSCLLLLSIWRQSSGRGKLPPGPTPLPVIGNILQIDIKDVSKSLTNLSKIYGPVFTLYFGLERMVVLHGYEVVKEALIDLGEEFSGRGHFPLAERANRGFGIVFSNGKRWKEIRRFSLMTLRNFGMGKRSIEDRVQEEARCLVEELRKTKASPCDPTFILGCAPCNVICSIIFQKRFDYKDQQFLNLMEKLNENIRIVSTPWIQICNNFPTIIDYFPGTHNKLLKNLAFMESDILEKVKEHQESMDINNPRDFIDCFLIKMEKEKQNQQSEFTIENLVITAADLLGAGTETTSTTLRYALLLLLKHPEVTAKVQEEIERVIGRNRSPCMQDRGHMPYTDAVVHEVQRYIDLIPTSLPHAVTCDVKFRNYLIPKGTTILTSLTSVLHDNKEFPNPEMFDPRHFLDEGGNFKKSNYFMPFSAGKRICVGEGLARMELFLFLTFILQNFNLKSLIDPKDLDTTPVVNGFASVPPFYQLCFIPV
# [8] = Plasma concentration in rat 10 mg/kg, ip after 60 mins; type: ADME, organism-based; parameters: dose 10 mg/kg, route intraperitoneal
# Cytochrome P450 2C9 = Cytochrome P450 2C9 (Homo sapiens, UniProt P11712); experiment: Inhibition of CYP2C9; type: ADME
# Sequence of Cytochrome P450 2C9 (P11712 whole entry): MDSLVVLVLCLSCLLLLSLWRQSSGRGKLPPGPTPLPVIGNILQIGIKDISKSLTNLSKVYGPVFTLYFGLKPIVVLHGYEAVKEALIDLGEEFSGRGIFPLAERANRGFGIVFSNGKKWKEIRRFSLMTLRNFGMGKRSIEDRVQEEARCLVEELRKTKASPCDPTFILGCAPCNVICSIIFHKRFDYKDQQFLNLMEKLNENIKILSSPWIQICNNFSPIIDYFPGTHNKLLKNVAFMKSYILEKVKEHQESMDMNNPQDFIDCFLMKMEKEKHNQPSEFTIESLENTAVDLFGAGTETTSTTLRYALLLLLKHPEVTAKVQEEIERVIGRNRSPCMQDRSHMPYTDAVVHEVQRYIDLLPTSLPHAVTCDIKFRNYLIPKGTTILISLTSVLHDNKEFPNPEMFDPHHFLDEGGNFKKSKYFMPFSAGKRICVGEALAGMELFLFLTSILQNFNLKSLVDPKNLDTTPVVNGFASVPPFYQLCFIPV
# [9] = Drug level in rat brain at 10 mg/kg, ip after 60 mins; type: ADME, organism-based; parameters: dose 10 mg/kg, route intraperitoneal; settings: read-out: Drug uptake
# [10] = Volume of distribution in rat at 10 mg/kg, iv; type: ADME, organism-based; parameters: dose 10 mg/kg, route intravenous; settings: in vivo
# [11] = Clearance in rat at 10 mg/kg, iv; type: ADME, organism-based; parameters: dose 10 mg/kg, route intravenous; settings: in vivo
# [12] = Metabolic stability in human liver microsomes assessed as half life; type: ADME, Microsome
# [13] = Metabolic stability in rat liver microsomes assessed as half life; type: ADME, Microsome
# T1 sequence (Q9Y5N1 whole entry): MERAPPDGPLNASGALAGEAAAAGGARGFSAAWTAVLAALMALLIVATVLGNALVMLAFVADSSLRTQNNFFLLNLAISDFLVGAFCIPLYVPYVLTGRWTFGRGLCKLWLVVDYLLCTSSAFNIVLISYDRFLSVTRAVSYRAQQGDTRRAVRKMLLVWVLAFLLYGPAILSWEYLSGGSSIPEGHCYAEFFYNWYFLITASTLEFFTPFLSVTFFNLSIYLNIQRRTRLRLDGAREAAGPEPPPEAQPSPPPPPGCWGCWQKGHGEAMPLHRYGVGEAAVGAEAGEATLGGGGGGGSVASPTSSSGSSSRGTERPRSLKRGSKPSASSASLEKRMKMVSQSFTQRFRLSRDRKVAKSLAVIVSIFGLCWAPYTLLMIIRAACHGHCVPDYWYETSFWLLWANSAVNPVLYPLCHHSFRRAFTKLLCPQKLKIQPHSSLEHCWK
# Sequence of Cytochrome P450 2D6 (P10635 whole entry): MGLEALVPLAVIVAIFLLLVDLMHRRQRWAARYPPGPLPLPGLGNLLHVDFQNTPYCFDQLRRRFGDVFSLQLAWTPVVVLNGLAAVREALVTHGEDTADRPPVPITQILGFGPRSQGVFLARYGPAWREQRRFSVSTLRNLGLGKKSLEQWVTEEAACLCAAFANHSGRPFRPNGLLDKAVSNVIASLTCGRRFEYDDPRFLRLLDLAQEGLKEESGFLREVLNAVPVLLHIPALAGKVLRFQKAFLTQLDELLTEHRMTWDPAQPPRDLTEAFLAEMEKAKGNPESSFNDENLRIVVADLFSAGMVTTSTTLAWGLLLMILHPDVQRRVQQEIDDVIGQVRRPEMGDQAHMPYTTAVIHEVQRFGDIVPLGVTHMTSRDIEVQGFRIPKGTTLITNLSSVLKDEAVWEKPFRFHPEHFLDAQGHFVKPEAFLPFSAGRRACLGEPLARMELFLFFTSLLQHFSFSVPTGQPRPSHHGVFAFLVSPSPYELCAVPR
SMILES,Kb (Histamine H3 receptor [1]) [nM],Ki (Histamine H3 receptor [2]) [nM],also measured
CN(C)CCSc1ncc(Cc2ccc(Cl)cc2)n1C,50.1,71,–
CC(C)c1ccc(C(=O)c2cnc(OCC3CCN(C(C)C)CC3)n2C)cc1,1.26,9,–
Cn1c(C(=O)c2ccc(Cl)cc2)cnc1NCCCN1CCCCC1,39.8,50,half-life [12]: > 3 h; half-life [13]: 0.0667 h
CC(C)CCCSc1ncc(C(=O)c2ccc(Cl)cc2)n1C,10000,> 5000,–
CN(C)CCCSc1ncc(Cc2ccc(Cl)cc2)n1C,6.31,20,–
c1cc(Sc2ccc([C@H]3CC[C@H]4CCCCN43)cc2)ccn1,–,12,–
Cn1c(C(=O)c2ccc(Cl)cc2)cnc1CCCCN1CCCCC1,10,24,half-life [12]: 2.98 h; half-life [13]: 0.0667 h
Cn1c(C(=O)c2ccc(Cl)cc2)cnc1OCCCN1CCCCC1,12.6,14,half-life [12]: > 3 h; half-life [13]: 0.917 h
Cn1c(C(=O)c2ccc(Cl)cc2)cnc1SCCCCN1CCCCC1,–,50,–
CN(C)CCCSc1ncc(C(O)c2ccc(Cl)cc2)n1C (stereo not given),3.98,18,–
CC(C)N1CCC(COc2ncc(C(=O)c3cc(Cl)cc(Cl)c3)n2C)CC1,1,–,–
CC(C)N1CCC(CCOc2ncc(C(=O)c3ccc(Cl)cc3)n2C)CC1,79.4,70,–
CC(C)N1CCC(Oc2ncc(C(=O)c3ccc(Cl)cc3)n2C)CC1,6.31,10,–

# Continued by falling Ki (Histamine H3 receptor [2]), values first:
Kb (Histamine H3 receptor [1]) [nM],Ki (Histamine H3 receptor [2]) [nM],SMILES,also measured
20,6,Cn1c(C(=O)c2ccc(Cl)cc2)cnc1SCCCN1CCCCC1,half-life [12]: 2.48 h; half-life [13]: 0.117 h
2,5,CN(C)CCCSc1ncc(C(=O)c2ccc(Cl)cc2)n1C,–
0.2,5,CC(C)N1CCC(COc2ncc(C(=O)c3cccc(Cl)c3)n2C)CC1,–
0.501,4,CC(C)N1CCC(COc2ncc(C(=O)c3ccc(C(F)(F)F)cc3)n2C)CC1,–
1,4,CC(C)N1CCC(COc2ncc(C(=O)c3ccc([N+](=O)[O-])cc3)n2C)CC1,–
–,4,CCCCN(CCCC)CCCOc1ccc(-c2cn3cccc(C)c3n2)cc1,–
0.501,3,CC(C)N1CCC(COc2ncc(C(=O)c3ccc(Cl)cc3)n2C)CC1,IC50 (Cytochrome P450 2D6): > 10000 nM; half-life [3]: 9 h; Kb (Histamine H3 receptor [4]): 10 nM; IC50 (Cytochrome P450 3A4): > 10000 nM; bioavailability [5]: 10%; concentration at 48 h [6]: 3.8 µM; Activity [7]: 77%; IC50 (Cytochrome P450 1A2): > 10000 nM; IC50 (Cytochrome P450 2C19): > 10000 nM; concentration at 1 h [8]: 2.6 µM; IC50 (Cytochrome P450 2C9): > 10000 nM; concentration at 1 h [9]: 17 µM; Vd [10]: 5.2 L/kg; clearance [11]: 9.3 mL/min/kg
0.316,3,CC(C)N1CCC(COc2ncc(C(=O)c3ccc(F)cc3)n2C)CC1,–
0.794,3,CC(C)N1CCC(COc2ncc(C(=O)c3ccc(Br)cc3)n2C)CC1,–
3.98,2,CN(C)CCCSc1ncc(/C(=N\O)c2ccc(Cl)cc2)n1C,–
0.501,2,CC(C)N1CCC(Sc2ncc(C(=O)c3ccc(Cl)cc3)n2C)CC1,–
0.00794,1,CC(C)N1CCC(COc2ncc(C(=O)c3ccccc3Cl)n2C)CC1,–
0.316,1,CC(C)N1CCC(COc2ncc(C(=O)c3ccccc3)n2C)CC1,–

# Source: ChEMBL document CHEMBL1143321, “Novel imidazole-based histamine H3 antagonists” (Bioorg Med Chem Lett, 2009)
